Assay results as given in ChEMBL document CHEMBL3227940, “Cyclopropylamines as suicide substrates for cytochromes P-450” (J Med Chem, 1979).

How the values were obtained:
Format in all cases: ADME
Conditions in all cases: probe aminopyrine
cytochrome P450 [1] = test: Inactivation of cytochrome P450 in rat liver microsomes assessed as inhibition of aminopyrine demethylation at 1 mM preincubated for 12 mins measured 5 mins after substrate addition by Nash reagent based colorimetry (reference value: 0%)
cytochrome P450 [2] = test: Inactivation of cytochrome P450 in rat liver microsomes assessed as inhibition of aminopyrine demethylation at 1 mM measured without preincubation by Nash reagent based colorimetry (reference value: 0%)
cytochrome P450 [3] = test: (§1) Inactivation of cytochrome P450 in rat liver microsomes assessed as inhibition of aminopyrine demethylation at 1 mM preincubated for 12 mins measured 5 mins after substrate addition by Nash reagent based colorimetry in presence of GSH (reference value: 0%)
cytochrome P450 [4] = test: Inactivation of cytochrome P450 in rat liver microsomes assessed as inhibition of aminopyrine demethylation at 1 mM measured without preincubation by Nash reagent based colorimetry in presence of GSH (reference value: 0%)
cytochrome P450 [5] = test: Inactivation of cytochrome P450 in rat liver microsomes assessed as inhibition of aminopyrine demethylation at 1 mM measured without preincubation by Nash reagent based colorimetry in presence of flavoprotein amine oxidase alternate substrate-inhibitor methimazole (reference value: 0%)
cytochrome P450 [6] = test: as §1, with “flavoprotein amine oxidase alternate substrate-inhibitor methimazole” for “GSH”
cytochrome P450 [7] = test: Inactivation of cytochrome P450 in rat liver microsomes assessed as inhibition of aminopyrine demethylation at 1 mM preincubated for 12 mins measured 5 mins after substrate addition by Nash reagent based colorimetry in absence of cofactor NADPH-generating system (reference value: 0%)
cytochrome P450 [8] = test: Inactivation of cytochrome P450 in rat liver microsomes assessed as inhibition of aminopyrine demethylation at 1 mM preincubated for 12 mins measured 5 mins after substrate addition by Nash reagent based colorimetry in presence of CO/O2 (80:20) (reference value: 0%)
cytochrome P450 [9] = test: Inactivation of cytochrome P450 in rat liver microsomes assessed as inhibition of aminopyrine demethylation at 0.1 mM preincubated for 12 mins measured 5 mins after substrate addition by Nash reagent based colorimetry (reference value: 0%)

| SMILES | inhibition at 5 min, 1000 µM (cytochrome P450 [1]) | also measured |
| --- | --- | --- |
| c1ccc(CN2CCOCC2)cc1 | 34% | inhibition at 1000 µM (cytochrome P450 [2]): 27% |
| c1ccc(CNC2CC2)cc1 | 61% | inhibition at 5 min, 1000 µM (cytochrome P450 [3]): 62%; inhibition at 1000 µM (cytochrome P450 [4]): 17%; inhibition at 1000 µM (cytochrome P450 [5]): 25%; inhibition at 5 min, 1000 µM (cytochrome P450 [6]): 57%; inhibition at 1000 µM (cytochrome P450 [2]): 29%; inhibition at 5 min, 1000 µM (cytochrome P450 [7]): 13%; inhibition at 5 min, 1000 µM (cytochrome P450 [8]): 24% |
| COc1ccc(CNC2CC2)cc1 | 54% |  |
| Cc1ccc(CNC2CC2)cc1 | 77% |  |
| Clc1ccc(CNC2CC2)cc1 | 79% |  |
| Brc1ccc(CNC2CC2)cc1 | 79% |  |
| COc1ccc(CNC(C)C)cc1 | 0% |  |
| Cc1ccc(CNC(C)C)cc1 | 2% |  |
| CC(C)NCc1ccccc1 | 9% | inhibition at 1000 µM (cytochrome P450 [2]): 9% |
| CC(C)NCc1ccc(Cl)cc1 | 25% |  |
| CC(C)NCc1ccc(Br)cc1 | 27% |  |
| C(CCNC1CC1)=C1c2ccccc2CCc2ccccc21 |  | inhibition at 5 min, 100 µM (cytochrome P450 [9]): 92% |
| CC(C)NCCC=C1c2ccccc2CCc2ccccc21 |  | inhibition at 5 min, 100 µM (cytochrome P450 [9]): 55% |
